The values below are quoted from earlier work in US5681738A, “Use of 10-oxo-trans-8-decenoic acid in mushroom cultivation” (The Penn State Research Foundation, priority 1992, dated 1997).

This data set has as its system seed chamber of runner bean. The following applies: Zimmerman et al., (1979); cited from earlier work.

In the case of `O=C/C=C/CCCCCCCCC(=O)O` [12-Oxo-trans-10-dodecenoic acid], the “formation of an intumescence on seed chamber (in words)” value is “found to induce the formation of an intumescence”.
